One block for each compound: values may come before it.
Tests used:
Carbonic anhydrase 2 = Carbonic anhydrase 2 (Homo sapiens, UniProt P00918); assay: Inhibition of human carbonic anhydrase 2 after 6 hrs by stop-flow CO2 hydration assay
Carbonic anhydrase 9 = Carbonic anhydrase 9 (Homo sapiens, UniProt Q16790); assay: Inhibition of human carbonic anhydrase 9 after 6 hrs by stop-flow CO2 hydration assay
Carbonic anhydrase 12 = Carbonic anhydrase 12 (Homo sapiens, UniProt O43570); assay: Inhibition of human carbonic anhydrase 12 after 6 hrs by stop-flow CO2 hydration assay
Sequence of Carbonic anhydrase 12 (O43570 whole entry): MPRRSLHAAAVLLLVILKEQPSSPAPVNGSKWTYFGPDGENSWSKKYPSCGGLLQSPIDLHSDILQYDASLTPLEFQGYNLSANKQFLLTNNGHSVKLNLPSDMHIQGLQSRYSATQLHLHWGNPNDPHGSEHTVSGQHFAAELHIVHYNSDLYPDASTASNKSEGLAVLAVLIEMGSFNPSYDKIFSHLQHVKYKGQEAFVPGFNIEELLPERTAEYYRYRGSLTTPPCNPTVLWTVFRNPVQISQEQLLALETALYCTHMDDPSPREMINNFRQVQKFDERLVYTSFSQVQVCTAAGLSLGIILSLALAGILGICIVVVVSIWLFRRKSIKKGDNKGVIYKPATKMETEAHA

Carbonic anhydrase 1 = Carbonic anhydrase 1 (Homo sapiens, UniProt P00915); assay: Inhibition of human carbonic anhydrase 1 after 6 hrs by stop-flow CO2 hydration assay
Sequence of Carbonic anhydrase 1 (P00915 whole entry): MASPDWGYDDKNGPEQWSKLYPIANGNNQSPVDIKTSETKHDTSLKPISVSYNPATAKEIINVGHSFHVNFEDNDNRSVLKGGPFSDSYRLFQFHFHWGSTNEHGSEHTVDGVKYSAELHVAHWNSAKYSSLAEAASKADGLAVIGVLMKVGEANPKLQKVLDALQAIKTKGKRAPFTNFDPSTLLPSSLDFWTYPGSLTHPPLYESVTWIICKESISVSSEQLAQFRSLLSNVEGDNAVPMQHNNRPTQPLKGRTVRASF

Structure (SMILES): CC(C)(C)[Si](C)(C)Oc1ccc2oc(=O)ccc2c1
Ki (Carbonic anhydrase 9): 800 nM

Structure (SMILES): CC(C)(C)[Si](C)(C)Oc1ccc2oc(=S)ccc2c1
Ki (Carbonic anhydrase 2): > 200000 nM
Ki (Carbonic anhydrase 9): 860 nM

Structure (SMILES): Oc1ccc2oc(=S)ccc2c1
Ki (Carbonic anhydrase 9): 800 nM

Structure (SMILES): CC(C)(C)[Si](C)(C)Oc1ccc2ccc(=S)oc2c1
Ki (Carbonic anhydrase 2): > 200000 nM
Ki (Carbonic anhydrase 9): 960 nM

Structure (SMILES): C=CCOc1ccc2oc(=S)ccc2c1
Ki (Carbonic anhydrase 9): 3260 nM

Structure (SMILES): C=CCOc1cc(=S)oc2ccccc12
Ki (Carbonic anhydrase 2): > 200000 nM

Structure (SMILES): O=c1ccc2ccc(OCCO)cc2o1
Ki (Carbonic anhydrase 2): > 200000 nM
Ki (Carbonic anhydrase 9): 920 nM

Structure (SMILES): Cc1ccc(S(=O)(=O)OCCOc2ccc3ccc(=O)oc3c2)cc1
Ki (Carbonic anhydrase 2): > 200000 nM
Ki (Carbonic anhydrase 9): 530 nM

Structure (SMILES): O=c1ccc2ccc(OCCF)cc2o1
Ki (Carbonic anhydrase 2): > 200000 nM
Ki (Carbonic anhydrase 9): 680 nM

Structure (SMILES): Cc1cc(C)cc(NC(=O)Nc2ccc3c(C)cc(=O)oc3c2)c1
Ki (Carbonic anhydrase 2): > 200000 nM

Structure (SMILES): Cc1cc(=O)oc2cc(NC(=O)OC(C)(C)C)ccc12
Ki (Carbonic anhydrase 2): > 200000 nM
Ki (Carbonic anhydrase 9): 970 nM

Structure (SMILES): C=CCOc1ccc2ccc(=O)oc2c1 [7-ALLYLOXYCOUMARIN]
Ki (Carbonic anhydrase 12): 640 nM
Ki (Carbonic anhydrase 2): > 200000 nM
Ki (Carbonic anhydrase 9): 730 nM
Ki (Carbonic anhydrase 1): 72900 nM

More lines, now with the values ahead:

Ki (Carbonic anhydrase 2): > 200000 nM
Ki (Carbonic anhydrase 9): 390 nM
Structure (SMILES): CC(=O)Nc1ccc2c(C)cc(=O)oc2c1

Ki (Carbonic anhydrase 2): > 200000 nM
Ki (Carbonic anhydrase 9): 780 nM
Structure (SMILES): Oc1ccc2ccc(=S)oc2c1

Ki (Carbonic anhydrase 2): > 200000 nM
Ki (Carbonic anhydrase 9): 930 nM
Structure (SMILES): C=CCOc1ccc2oc(=O)ccc2c1

Ki (Carbonic anhydrase 2): > 200000 nM
Ki (Carbonic anhydrase 9): 210 nM
Structure (SMILES): C=CCOc1cc(=O)oc2ccccc12

Ki (Carbonic anhydrase 2): > 200000 nM
Ki (Carbonic anhydrase 9): 3230 nM
Structure (SMILES): C=CCOc1ccc2ccc(=S)oc2c1

Source: ChEMBL document CHEMBL1955798, “Novel coumarins and 2-thioxo-coumarins as inhibitors of the tumor-associated carbonic anhydrases IX and XII” (Bioorg Med Chem, 2012)
